Measured values as given in US11584775B2, “C4-modified oleanolic acid derivatives for inhibition of IL-17 and other uses” (REATA PHARMACEUTICALS, INC., priority 2015, dated 2023).

Key:
hIL17 = experiment: IL-17 release from differentiated primary human T-cells (IL-17A HTRF assay); format: cell-based; conditions: inhibition of IL-17A levels; primary human CD4+ T cells differentiated into Th17 cells, 46-hour incubation
Description: D. IL-17 Release from Differentiated Primary Human T-Cells and Cell Viability
Primary human cryopreserved CD4+ T Cells (Lonza, donor #0000402103) were plated in Lymphocyte Growth Medium-3 (LGM-3, Lonza) according to the manufacturer's recommendations, and allowed to recover for approximately 3 hours at 37° C. with 5% CO2 in a humidified atmosphere. After the recovery step, cells were collected by centrifugation and re-plated in 96-well plates at a density of ˜140,000 cells per well in LGM-3 medium that contained DMSO (vehicle) or test compound (2-500 nM or 4-1000 nM concentration range). Triplicate wells were plated for each test condition. DMSO (final concentration ≤0.1%) was used as the vehicle. Immediately after plating, CD4+ T cells were activated by adding Dynabeads Human T-Activator CD3/CD28 (Life Technologies; bead-to-cell ratio of 1:2.5) and differentiated into Th17 cells by adding a mixture of the following cytokines: transforming growth factor-β (TGF-β, 5 ng/mL), IL-6 (20 ng/mL), IL-23 (20 ng/mL), and […] (10 ng/mL). Undifferentiated control cells received only cytokine IL-2 (50 ng/mL). All human recombinant cytokines were purchased from R&D Systems. Following a 46-hour incubation at 37° C. with 5% CO2 in a humidified atmosphere, the plates were centrifuged for 3 minutes at 250×g, and half of the supernatant was transferred to a new plate to be used in the IL-17A assay (see below). Cell viability was assessed in the original plate using the CyQuant Direct Assay (Life Technologies). CyQuant values from test compound samples were normalized to those from DMSO-treated samples. The concentration of IL-17A in the supernatant was measured using the Homogeneous Time-Resolved Fluorescence (HTRF) assay (Cisbio Bioassays) according to the manufacturer's protocol. The assay was performed at room temperature in low volume, solid white 384-well plates (Greiner Bio-One). Samples and standards (serially-diluted human recombinant IL-17A (0 to 5,000 pg/mL concentration range; Cisbio Bioassays) were incubated with the anti-human IL-17A antibody conjugate for 16 hours and fluorescence was measured using a Pherastar FS microplate reader (BMG Labtech) in the HTRF mode (excitation at 337 nm and emission at 665 nm and 620 nm). IL-17A concentrations were assessed in duplicate aliquots of supernatant from each well resulting in a total of six readings per test condition. The 665 nm/620 nm signal ratio was calculated and the concentration of IL-17A in each sample was determined by interpolation from the standard curve. IL-17A values from test compound samples were normalized to those from DMSO-treated samples. Data were analyzed using GraphPad Prism version 6.00 for Windows (GraphPad Software, La Jolla Calif. USA). A non-linear regression analysis with log (inhibitor) vs. normalized response using a variable slope was applied to fit the data and determine the IC50 values for inhibition of IL-17A levels and cell viability.

[1] = tested on: IFNγ-induced Nitric Oxide production; experiment: Nitric oxide production assay in RAW 264.7 mouse macrophages; format: cell-based; conditions: RAW264.7, suppression of IFNγ-induced NO production normalized to cell viability (WST-1), RAW 264.7, 24 hours IFNγ
Description: A. Nitric Oxide Production Assay and Cell Viability
RAW 264.7 mouse macrophages were plated in 96-well plates at a density of 30,000 cells per well in triplicate in RPMI 1640+0.5% FBS and incubated at 37° C. with 5% CO2 in a humidified atmosphere. The next day, cells were pre-treated with DMSO (vehicle) or test compound (concentration ranges of 0.4-200 nM or 2-1000 nM) for 2 hours and then treated with recombinant mouse IFNγ (R&D Systems) for 24 hours. Nitric oxide concentration in media was determined using the Griess reagent system (Promega). Cell viability was determined using WST-1 reagent (Roche). Values from test compound samples were normalized to those from DMSO/IFNγ-treated samples. IC50 values were determined based on the suppression of IFNγ-induced Nitric Oxide production normalized to cell viability.

human RORγ = target: T1, human RORγ (Homo sapiens, UniProt P51449); experiment: RORγ assay (GAL4-RORγ hybrid luciferase reporter, inverse-agonist activity); format: cell-based; conditions: GAL4-RORγ hybrid reporter cells, 23 hours
T1 sequence (P51449 269-508 limits assumed): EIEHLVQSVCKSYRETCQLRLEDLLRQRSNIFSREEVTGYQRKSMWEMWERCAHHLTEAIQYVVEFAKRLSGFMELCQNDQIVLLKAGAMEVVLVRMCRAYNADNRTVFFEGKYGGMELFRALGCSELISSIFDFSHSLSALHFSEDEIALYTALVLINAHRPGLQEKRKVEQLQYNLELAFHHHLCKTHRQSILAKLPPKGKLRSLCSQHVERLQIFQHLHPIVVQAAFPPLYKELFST
Text: C. RORγ Assay and Cell Viability
The RORγ assay system was purchased from Indigo Biosciences. This nuclear receptor assay utilizes a human cell line that has been engineered to express a hybrid form of the Human RAR-related Orphan Receptor Gamma (RORγ) at high levels. The N-terminal DNA binding domain (DBD) of the native RORγ receptor was substituted with the yeast GAL4-DBD to generate the GAL4-RORγ hybrid nuclear receptor. The reporter cell line is transfected with a plasmid that encodes the beetle luciferase gene under the control of the GAL4 upstream activating sequence (UAS). GAL4 binds to the UAS and increases transcription of downstream target genes. […] To assess the RORγ inverse-agonist activity of the test compounds, reporter cells were plated in white 96-well plates in triplicate and were treated with DMSO (vehicle) or test compound (concentration ranges of 0.4-200 nM or 2-1000 nM) at 37° C. with 5% CO2 in a humidified atmosphere for 23 hours. After this incubation, luciferin was added to the wells and luciferase activity was determined by measuring the luminescence signal using a BMG Pherastar microplate reader. Viability was determined using the Live Cell Multiplex Assay (Indigo Biosciences). Values from test compound samples were normalized to those from DMSO-treated samples. Data were analyzed using GraphPad Prism version 6.00 for Windows (GraphPad Software, La Jolla Calif. USA). A non-linear regression analysis with log (inhibitor) vs. normalized response using a variable slope was applied to fit the data and determine the IC50 values for inhibition of RORγ and cell viability.

NRF2 = experiment: AREc32 luciferase reporter assay; format: cell-based, human; conditions: EC2×: concentration required to increase GST ARE Luciferase reporter activity by 2-fold; AREc32 cells, 19 hours
Text: B. AREc32 Luciferase Reporter Assay
The AREc32 luciferase reporter assay allows for quantitative assessment of the endogenous activity of the Nrf2 transcription factor in cultured mammalian cells. AREc32 cells are derived from MCF-7 human breast carcinoma cells that were stably transfected with a reporter construct that contains the firefly luciferase gene located downstream of eight copies of the rat GSTA2 antioxidant response element (ARE) sequence (Wang et al., 2006; CXR Biosciences). Active NRF2 binds to the ARE sequences and increases expression of the firefly luciferase gene. To assess the NRF2-activating potential of the test compounds, AREc32 cells were plated in black 96-well plates at a density of 20,000 cells per well in triplicate in DMEM+10% FBS+0.8 mg/mL Geneticin and incubated at 37° C. with 5% CO2 in a humidified atmosphere. The next day, cells were treated with DMSO (vehicle) or test compound (concentration ranges of 0.4-200 nM or 2-1000 nM) for 19 hours. Luciferase activity was determined using the ONE-Glo Luciferase assay (Promega). The luminescence signal was measured on a BMG Pherastar microplate reader. The mean luminescence value from test compound-treated wells was normalized to that from DMSO-treated wells and was represented as fold-induction. Data were analyzed using GraphPad Prism version 6.00 for Windows, GraphPad Software, La Jolla Calif. USA. A non-linear regression curve with log (agonist) vs. response using a variable slope was used to fit the data. Where applicable, a maximum threshold value of 50-fold over DMSO was set. EC2× values were interpolated from the curve. EC2× corresponds to the concentration of test compound required to increase GST ARE Luciferase reporter activity by 2-fold.

SMILES | IC50 (hIL17) | IC50 [1] | IC50 (human RORγ) | EC2x: concentration giving 2-fold induction of ARE luciferase reporter (NRF2)
COC(=O)[C@]12CCC(C)(C)C[C@H]1[C@H]1C(=O)C=C3[C@@]4(C)C=C(C#N)C(=O)[C@@H](C)[C@@H]4CC[C@@]3(C)[C@]1(C)CC2 [Comparison Compound #1, reference compound] | 25 nM | 1.2 nM | 127 nM | 11 nM
CC1(C)CC[C@]2(C(=O)NCC(F)(F)F)CC[C@]3(C)[C@H](C(=O)C=C4[C@@]5(C)C=C(C#N)C(=O)C(C)(C)[C@@H]5CC[C@]43C)[C@@H]2C1 [Comparison Compound #2, reference compound] | 40 nM | 4.5 nM | 104 nM | 53 nM
CCNC(=O)[C@]12CCC(C)(C)C[C@H]1[C@H]1C(=O)C=C3[C@@]4(C)C=C(C#N)C(=O)C(C)(C)[C@@H]4CC[C@@]3(C)[C@]1(C)CC2 [Comparison Compound #3, reference compound] | 81 nM | 3.4 nM | 204 nM | 32 nM
C[C@@H]1C(=O)C(C#N)=C[C@]2(C)C3=CC(=O)[C@@H]4[C@@H]5CC(C)(C)CC[C@]5(NC(=O)C(C)(F)F)CC[C@@]4(C)[C@]3(C)CC[C@@H]12 [Comparison Compound #4, reference compound] | 38 nM | 0.6 nM | 177 nM | 11 nM
COC(=O)[C@]12CCC(C)(C)C[C@H]1[C@@]1(O)C(=O)C=C3[C@@]4(C)C=C(C#N)C(=O)C(C)(C)[C@@H]4CC[C@@]3(C)[C@]1(C)CC2 [Comparison Compound #5, reference compound] | 15 nM | 1.6 nM | 135 nM | 2 nM
CC1(C)CC[C@@]23CC[C@@]4(C)[C@]5(C)CC[C@H]6C(C)(C)C(=O)C(C#N)=C[C@]6(C)C5=CC(=O)[C@]4(OC2=O)[C@@H]3C1 [Comparison Compound #6, reference compound] | 15 nM | 0.7 nM | 159 nM | 2 nM
COC(=O)N[C@]12CCC(C)(C)C[C@H]1[C@H]1C(=O)C=C3[C@@]4(C)C=C(C#N)C(=O)C(C)(C)[C@@H]4CC[C@@]3(C)[C@]1(C)CC2 [Comparison Compound #7, reference compound] | 27 nM | 2.4 nM | 371 nM | 20 nM
Cc1nnc([C@]23CCC(C)(C)C[C@H]2[C@H]2C(=O)C=C4[C@@]5(C)C=C(C#N)C(=O)C(C)(C)[C@@H]5CC[C@@]4(C)[C@]2(C)CC3)o1 [Comparison Compound #8, reference compound] | 32 nM | 2 nM | 222 nM | 15 nM
Cc1noc([C@]23CCC(C)(C)C[C@H]2[C@H]2C(=O)C=C4[C@@]5(C)C=C(C#N)C(=O)C(C)(C)[C@@H]5CC[C@@]4(C)[C@]2(C)CC3)n1 [Comparison Compound #9, reference compound] | 18 nM | 1.2 nM | 176 nM | 12 nM
COC(=O)[C@]12CCC(C)(C)C[C@H]1[C@H]1C(=O)C=C3[C@@]4(C)C=C(C#N)C(=O)[C@@](C)(CO)[C@@H]4CC[C@@]3(C)[C@]1(C)CC2 [Comparison Compound #300, reference compound] | 18 nM | 7.4 nM | 152 nM | 34 nM
CCNC(=O)[C@]12CCC(C)(C)C[C@H]1[C@H]1C(=O)C=C3[C@@]4(C)C=C(C#N)C(=O)[C@@](C)(CO)[C@@H]4CC[C@@]3(C)[C@]1(C)CC2 [Compound T25, (4aS,6aR,6bS,8aR,9R,12aS,14aR,14bS)-11-cyano-N-ethyl-9-(hydroxymethyl)-2,2,6a,6b,9,12a-hexamethyl-10,14-dioxo-1,3,4,5,6,6a,6b,7,8,8a,9,10,12a,14,14a,14b-hexadecahydropicene-4a(2H)-carboxamide] | 67 nM | 16 nM |  | 131 nM
CN(C)C(=O)[C@]1(C)C(=O)C(C#N)=C[C@]2(C)C3=CC(=O)[C@]45OC(=O)[C@@]6(CCC(C)(C)C[C@H]64)CC[C@@]5(C)[C@]3(C)CC[C@@H]12 [Compound T36, (4S,4aR,6aR,6bS,8aS,12aR,12bS,14bS)-2-cyano-N,N,4,6a,6b, 11,11,14b-octamethyl-3,13,16-trioxo-4,4a,5,6,6a,6b,7,8,10,11,12,12a,13,14b-tetradecahydro-3H,9H-12b,8a-(epoxymethano)picene-4-carboxamide] | 126 nM | > 1000 nM |  | >1000 nM
